Test results as given in patent US20070015833A1 (priority 2005, published 2007).

Assay: small volume in vitro release in 50 ml 0.1N HCl
Type: physicochemical
Conditions: 37° C., 150 rpm
Experimental: The formulations were tested for their small volume in vitro release characteristics in 50 ml 0.1N HCl at 37° C. and 150 rpm using the following procedure: III. Instrumentation (or Equivalent) a. Automated Dissolution System comprising of: Hanson SR8 Plus Test Station Hanson Auto Plus Maximiser System Controller Hanson Auto Plus MultiFill Fraction Collector b. HPLC System comprising of: pump—Merck Hitachi L-7100 autoinjector—Merck Hitachi L-7200 column oven—Merck Hitachi L-7300 detector—Merck Hitachi L-7400 interface and integration software—Merck Hitachi D-7000
0.1N HCl Preparation Dilute 8.5 ml HCl 37% to 1 liter with purified water. Procedure Place one weighed capsule in each vessel containing 0.1N HCl and immediately operate the apparatus for 30 min. Unless otherwise specified, 3 ml samples are withdrawn from each vessel and immediately filtered through PTFE membranes at 15 and 30 min.
The small volume was chosen as a model of the conditions in a fasted stomach.

CC(C)OC(=O)C(C)(C)Oc1ccc(C(=O)c2ccc(Cl)cc2)cc1 [Micronized Fenofibrate]
dissolution (in words): no dissolution at all
% dissolved 15 min (15 min): 0%
% dissolved 30 min (30 min): 0%
